Laboratory results reported in US20240342198A1, “TREATMENT OF IR[…] SUBJECTS WITH AUTISM SPECTRUM DISORDERS WITH MODERATE TO SEVERE ANXIETY AND/OR SOCIAL AVOIDANCE” (ZYNERBA PHARMACEUTICALS, INC., priority 2021, published 2024).

Tests used:
[1] = tested on: children and adolescents with autism spectrum disorder; assay: BRIGHT study: open-label safety, tolerability and efficacy study of ZYN002 transdermal gel, 14 weeks; format: in vivo, human; conditions: subgroup comparison
Description: An exploratory open-label safety, tolerability and efficacy study of Zygel™ ZYNO02 transdermal gel to 37 children and adolescents with autism spectrum disorder was conducted. The patient population (ages 4 through 17 years old) were predominantly moderate-to-severe ASD patients. ASD was confirmed by Diagnostic and Statistical Manual of Mental Disorders, 5th edition (DSM-5) diagnostic criteria to assess the safety and efficacy of ZYNO02 in treating ASD-related behaviors as measured by a variety of efficacy assessments. These included the Aberrant Behavior Checklist-Community (ABC-C); the Autism Diagnostic Observation Schedule®, 2nd Edition (ADOS-2); and the Parent Rated Anxiety Scale-Autism Spectrum Disorder (PRAS-ASD). ZYNO02 was administered to patients with moderate-to-severe symptoms of ASD as add-on therapy to their standard of care.
The majority of the patients were male (92%) with a mean age of 9.2 years. […] The majority of patients had moderate or severe ASD at baseline as measured by the ADOS®-2 comparison score (94%) and Diagnostic and Statistical Manual of Mental Disorders, 5th edition, severity levels (92%). […]
The trial evaluated multiple efficacy assessments, including the ABC-C, PRAS-ASD, Autism Parenting Stress Index, Autism Impact Measure (AIM), and Clinical Global Impression-Severity (CGI-S) and Improvement (CGI-I). […]

[2] = tested on: patients with FXS and comorbid ASD; assay: Pooled placebo-controlled data: Week 12 change in ABC-C Irritability, 156 subjects; format: in vivo, human; conditions: subgroup comparison
Text: The data collected from the studies presented herein, and other similar studies were pooled together and analyzed. […] The subjects had moderate to severe symptoms of ASD (ADOS-2, comparison score greater than, or equal to, 5). The data presented in Table 2 is the Week 12 change in ABC-C Irritability of all patients. In previous studies (such as presented in Example 1, Table 1) the data was enriched by removing the non-completers from the analysis and only presenting data from the completers.

SMILES: C=C(C)C1CCC(C)=CC1c1c(O)cc(CCCCC)cc1O (centres unmarked) [CBD, 2-[3-methyl-6-(1-methylethenyl)-2-cyclohexen-1-yl]-5-pentyl-1,3-benzenediol]
- improvement in irritability, PRAS score > 37 compared to ≤ 37 [1]: twice as much improvement in irritability
- improvement in irritability, ABC-CFXS Social Avoidance score > 7 compared to ≤ 7 [2]: twice as much improvement in irritability
